Columns and labels:
Test in all cases: selective drug sensitivity score (sDSS, relative to normal bone marrow) (sDSS (score)); higher = more potent and effective on the cell line relative to normal bone marrow cells
Conditions in all cases: 72 h
COG-LL-394h = test system: COG-LL-394h
SEM cells = test system: SEM cells
ALL-SIL = test system: ALL-SIL
COG-LL-402h = test system: COG-LL-402h
JURKAT = test system: JURKAT
RCH-ACV = test system: RCH-ACV
MOLT-4 = test system: MOLT-4
NALM-6 = test system: NALM-6
NALM-16 = test system: NALM-16
MHH-CALL-3 = test system: MHH-CALL-3
HPB-ALL = test system: HPB-ALL
COG-LL-319h = test system: COG-LL-319h
380 = test system: 380
REH = test system: REH
KASUMI-9 = test system: KASUMI-9
PEER = test system: PEER
TANOUE = test system: TANOUE
KASUMI-10 = test system: KASUMI-10
PF-382 = test system: PF-382
COG-LL-317 = test system: COG-LL-317
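Further: ALL cell lines in 384-well plates, five doses spanning 10,000-fold, each plate scaled between vehicle and 100 µmol/L benzalkonium chloride controls, sDSS an adapted area-under-curve metric.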

Structure (SMILES) | selective drug sensitivity score (COG-LL-394h) | selective drug sensitivity score (SEM cells) | selective drug sensitivity score (ALL-SIL) | selective drug sensitivity score (COG-LL-402h) | selective drug sensitivity score (JURKAT) | selective drug sensitivity score (RCH-ACV) | selective drug sensitivity score (MOLT-4) | selective drug sensitivity score (NALM-6) | selective drug sensitivity score (NALM-16) | selective drug sensitivity score (MHH-CALL-3) | selective drug sensitivity score (HPB-ALL) | selective drug sensitivity score (COG-LL-319h) | selective drug sensitivity score 380 | selective drug sensitivity score (REH) | selective drug sensitivity score (KASUMI-9) | selective drug sensitivity score (PEER) | selective drug sensitivity score (TANOUE) | selective drug sensitivity score (KASUMI-10) | selective drug sensitivity score (PF-382) | selective drug sensitivity score (COG-LL-317)
O=C(Nc1nc2cccc(-c3ccc(CN4CCS(=O)(=O)CC4)cc3)n2n1)C1CC1 [Filgotinib] (top concentration 10000 nM) | -3.34 | 1.96 | -0.24 | -1.54 | -1.34 | 1.56 | -5.34 | -2.44 | -5.34 | 1.26 | -1.34 | -3.74 | 11.7 | 1.16 | 0.26 | -2.04 | -5.34 | 1.46 | -2.24 | 1.16
COc1cc(Nc2ncc(F)c(Nc3ccc4c(n3)NC(=O)C(C)(C)O4)n2)cc(OC)c1OC [Tamatinib] (top concentration 10000 nM) | -5.42 | 12 | -5.42 | -1.22 | -5.42 | 14 | -5.42 | -5.42 | -1.42 | -5.42 | -5.42 | -0.72 | -5.42 | -2.22 | 2.68 | -5.42 | -5.32 | 8.58 | -4.32 | -5.42
NC(=O)/C(=C/n1cnc(-c2cc(C(F)(F)F)cc(C(F)(F)F)c2)n1)c1cncnc1 [Eltanexor] (top concentration 10000 nM) | 4.66 | 3.96 | 10.3 | 12.1 | 9.76 | 12.7 | 11.4 | 10.6 | -0.84 | 22.3 | 5.86 | 8.46 | 13.6 | 7.06 | 11.1 | 7.56 | -11.8 | 2.36 | 8.36 | 14.7
CN1CCC(CNc2ccc3ncc(-c4cccc(OC(F)(F)F)c4)n3n2)CC1 [SGI-1776] (top concentration 10000 nM) | 0.82 | 6.92 | -1.48 | -2.48 | -3.28 | 0.62 | -2.88 | -3.08 | -1.38 | -3.98 | -4.08 | -1.28 | -2.38 | -2.78 | -1.68 | -0.58 | -8.18 | 4.82 | -2.68 | 0.02
CCCCCCCCCCCCCCCCOP(=O)([O-])OCC[N+](C)(C)C [Miltefosine] (top concentration 100000 nM) | -1.54 | 4.36 | 3.36 | 0.46 | -1.14 | 3.16 | 0.26 | 1.66 | -0.34 | -2.94 | -2.94 | 2.76 | -1.54 | 2.76 | 0.46 | 13.1 | 1.76 | -1.14 | 1.16 | 1.06
O=C(/C=C/c1cccc(S(=O)(=O)Nc2ccccc2)c1)NO [Belinostat] (top concentration 10000 nM) | 2.1 | 7.6 | 8.9 | 12.6 | 7.6 | 14.3 | 7.6 | 7.4 | 2.5 | 17.5 | 8.4 | 11.8 | 16.2 | 5.1 | 8.9 | 7.8 | -4.5 | 7.6 | 8.4 | 12.9
CC(C)(C)Cn1c(N)nc2ccc(-c3[nH]c(C(C)(C)C)nc3-c3ccc(F)cc3)nc21 [Ralimetinib] (top concentration 10000 nM) | 4.16 | 1.76 | 3.36 | 2.26 | 1.76 | 11.5 | 8.36 | -0.24 | -0.84 | -0.84 | 3.66 | 4.06 | -0.84 | 2.36 | 8.76 | 2.26 | -0.44 | 0.86 | 2.06 | 0.96
Nc1ccccc1NC(=O)c1ccc(CNC(=O)OCc2cccnc2)cc1 [Entinostat] (top concentration 10000 nM) | -3.72 | 12.9 | 12.1 | 4.98 | 2.68 | 9.98 | 1.48 | 1.08 | 0.28 | 11.4 | 4.28 | 12.7 | 13.1 | 2.68 | 8.28 | 6.88 | -8.52 | 3.68 | 2.08 | 2.98
CCNC(=O)C[C@@H]1N=C(c2ccc(Cl)cc2)c2cc(OC)ccc2-n2c(C)nnc21 [Molibresib] (top concentration 10000 nM) | -2.1 | 7.7 | -3.3 | 5.3 | -0.6 | 7.7 | -4.4 | 3.2 | 1.6 | 16.7 | 0.8 | 6.9 | -5.5 | 0.8 | 9.1 | -3 | -6.2 | 5.3 | 2.7 | 3.2
COc1cc(Nc2ncc3c(n2)-c2ccc(Cl)cc2C(c2c(F)cccc2OC)=NC3)ccc1C(=O)O [Alisertib] (top concentration 10000 nM) | 2.28 | 26.8 | 17.2 | 16.1 | 11.3 | 24.3 | 21.8 | 20.1 | 0.28 | 12 | 14.3 | 23.3 | 26.4 | 14.4 | 25 | 26.6 | -5.62 | 14.6 | 14.3 | 29.6
Cc1c(-c2c(-c3ccc(F)o3)sc3ncnc(O[C@H](Cc4ccccc4OCc4ccnn4CC(F)(F)F)C(=O)O)c23)ccc(OCCN2CCN(C)CC2)c1Cl (top concentration 1000 nM) | -4.54 | -6.44 | -1.04 | 6.06 | -6.44 | -6.54 | -2.84 | -3.44 | -4.64 | 1.56 | -2.44 | 15.8 | 0.86 | -6.84 | -1.84 | -0.14 | -7.74 | -2.64 | -7.74 | -2.84
Cc1ncc(Cl)cc1NCc1ccc(C(=O)N[C@@H](CC2CCCC2)C(=O)NC2CC2)s1 (top concentration 5000 nM) | 1.36 | -0.94 | 4.16 | 13.1 | 0.76 | 1.46 | 3.26 | -0.94 | 1.06 | 8.26 | 1.36 | 14.3 | 9.86 | -0.84 | -0.84 | -0.24 | -0.94 | 2.46 | -0.94 | 18.9
Nc1ccccc1NC(=O)c1ccc(CNc2nccc(-c3cccnc3)n2)cc1 [Mocetinostat] (top concentration 10000 nM) | 2.74 | 9.04 | 9.14 | 8.84 | 6.74 | 9.54 | 5.24 | 2.94 | -0.46 | 12.4 | 8.64 | 14.7 | 15.5 | 3.94 | 9.14 | 9.24 | -8.46 | 6.74 | 6.04 | 5.64
Cn1cc(CNCC2CCN(c3ncc(C(=O)NO)cn3)CC2)c2ccccc21 [Quisinostat] (top concentration 1000 nM) | 6.78 | 6.38 | 5.68 | 17.6 | 1.78 | 14.2 | 2.98 | 1.78 | -1.32 | 17 | 6.88 | 12.3 | 6.68 | -1.12 | 9.78 | 2.88 | -7.62 | 7.38 | 2.08 | 7.18
CC(C)[C@@H](CS(=O)(=O)C(C)C)N1C(=O)[C@@](C)(CC(=O)O)C[C@H](c2cccc(Cl)c2)[C@H]1c1ccc(Cl)cc1 [AMG-232] (top concentration 10000 nM) | 8.76 | -8.34 | -8.14 | 9.26 | -8.34 | 12.1 | 10.1 | 7.96 | -10.2 | 12.6 | -9.34 | 11.4 | 13 | 8.36 | 13.1 | -6.94 | -10.5 | 10.1 | -8.94 | 15.1
COC12C(COC(N)=O)C3=C(C(=O)C(C)=C(N)C3=O)N1CC1NC12 (stereo in doubt) [Mitomycin_C] (top concentration 10000 nM) | -2.86 | 3.84 | -2.86 | -2.86 | -2.86 | 4.84 | -2.86 | -2.86 | -2.86 | -2.86 | -1.16 | 9.74 | -1.36 | 3.74 | 4.04 | -2.86 | -2.86 | -2.86 | -2.86 | -2.66
CO[C@@H]1[C@H](N(C)C(=O)c2ccccc2)C[C@H]2O[C@]1(C)n1c3ccccc3c3c4c(c5c6ccccc6n2c5c31)C(=O)NC4 [Midostaurin] (top concentration 10000 nM) | -3.84 | 19.3 | 10.8 | 6.86 | -1.34 | 16.2 | 8.66 | 7.56 | -0.64 | -0.64 | 4.36 | 11.7 | 10.1 | 3.66 | 11.7 | 4.16 | -7.24 | 13.4 | 4.46 | 8.96
O=C(/C=C\n1cnc(-c2cc(C(F)(F)F)cc(C(F)(F)F)c2)n1)NNc1cnccn1 [Selinexor] (top concentration 10000 nM) | 5.78 | 5.38 | 9.88 | 11.7 | 12.8 | 13.7 | 13.2 | 13 | 0.48 | 24.5 | 3.78 | 9.68 | 18.1 | 10.3 | 7.98 | 10.2 | -7.02 | 3.78 | 9.78 | 17.4
